Where two headings read alike, the source gives them in different places.

This note sets out measurements from patent publication US8653127B2, “Bicyclic pyrazolo-heterocycles” (Cara Therapeutics, Inc., priority 2009, dated 2014).

One test deals with rat L5/L6 SNL model. The test can be described thus: Spinal nerve ligation (SNL) model of neuropathic pain, mechanical allodynia. The test is classed as in vivo. The conditions noted are these: two-way repeated measurement ANOVA, FIG. 1. How it is done: The SNL model (Kim and Chung, 1992, Pain 50(3):355-63) was used to induce chronic neuropathic pain in rats. Rats were anesthetized with isoflurane, the left L5 transverse process was removed, and the L5 and L6 spinal nerves were tightly ligated with 6-0 silk suture. The wound was then closed with internal sutures and external staples. Following at least seven days post SNL, baseline, post-injury and post-treatment values for non-noxious mechanical sensitivity were evaluated using eight Semmes-Weinstein filaments (Stoelting, Wood Dale, Ill., USA) with varying stiffness (0.4, 0.7, 1.2, 2.0, 3.6, 5.5, 8.5, and 15 g) according to the up-down method (Chaplan et al., 1994, J. Neurosci. Meth., 53(1):55-63). Animals were placed on a perforated metallic platform and allowed to acclimate to their surroundings for a minimum of 30 mins before testing.
Rat L5/L6 SNL model (n=6/group; mean±sem). Sensitivity to non-noxious mechanical stimuli was tested before and at various time points following oral administration of compound (36). The mean and standard error of the mean (SEM) were determined for the injured paw in each treatment group. Since this stimulus is normally not considered painful, significant injury-induced increases in responsiveness in this test are interpreted as a measure of mechanical allodynia.

The target in test [1] is human CB1 receptor (hCB1) (Homo sapiens, UniProt P21554). Briefly: cAMP assay, agonist/inverse agonist activity at human CB1 receptor. The test is classed as cell-based. The conditions noted are these: hCB1R, read-out: EC50 at hCB1R (Potency at Human CB1 determined by cAMP Assay). The procedure: The ability of each of the compounds to act as agonists or inverse agonists at human CB2 and CB 1 receptors (hCB2, hCB 1, respectively) and at the rat CB2 receptor (rCB2) was determined by measuring changes in intracellular cyclic AMP (cAMP) levels as described in U.S. Pat. No. 7,517,874.
TR-FRET was measured using a 330-380 nm excitation filter, 615 nm and 665 nm emission filters, dichroic mirror 380 nm and Z=10 mm. cAMP concentrations in each well were back-calculated from a cAMP standard curve run concurrently during each assay. Each plate contained 16 wells of forskolin stimulated cells and 16 wells of forskolin plus 1 μM CP55,940-treated cells. Concentrations of cAMP were expressed as a percent of the difference of these two groups of wells. Concentration-response data including EC50 (the concentration of compound producing 50% of the maximal response) and intrinsic activity (the percent maximal activation compared to full activation by CP55,940) were determined using a four-parameter non-linear regression algorithm (CambridgeSoft Bioassay).
On the technique in general: Changes in cAMP serve as a functional read-out for many G protein-coupled receptors.

Test [2] addresses human CB2 receptor (hCB2) (Homo sapiens, UniProt P34972). The test can be described thus: cAMP assay, agonist/inverse agonist activity at human CB2 receptor. The test is classed as cell-based. The procedure: TR-FRET was measured using a 330-380 nm excitation filter, 615 nm and 665 nm emission filters, dichroic mirror 380 nm and Z=10 mm. cAMP concentrations in each well were back-calculated from a cAMP standard curve run concurrently during each assay. Each plate contained 16 wells of forskolin stimulated cells and 16 wells of forskolin plus 1 μM CP55,940-treated cells. Concentrations of cAMP were expressed as a percent of the difference of these two groups of wells.

Where [3] appears, read: hCB2R, cAMP assay, read-out: EC50 at hCB2R (Potency at Human CB2 determined by cAMP Assay).

Chain of human CB2 receptor (hCB2) (P34972 whole entry): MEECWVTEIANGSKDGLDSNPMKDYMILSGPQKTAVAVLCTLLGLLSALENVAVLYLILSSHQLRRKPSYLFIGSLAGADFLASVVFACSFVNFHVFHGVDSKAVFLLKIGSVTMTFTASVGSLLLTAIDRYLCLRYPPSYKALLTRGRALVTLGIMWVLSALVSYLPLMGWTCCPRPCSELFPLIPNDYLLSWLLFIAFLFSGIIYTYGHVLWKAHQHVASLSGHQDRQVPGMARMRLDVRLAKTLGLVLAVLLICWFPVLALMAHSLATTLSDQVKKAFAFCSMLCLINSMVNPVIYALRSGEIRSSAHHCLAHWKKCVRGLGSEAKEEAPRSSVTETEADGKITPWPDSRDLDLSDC
Chain of human CB1 receptor (hCB1) (P21554 whole entry): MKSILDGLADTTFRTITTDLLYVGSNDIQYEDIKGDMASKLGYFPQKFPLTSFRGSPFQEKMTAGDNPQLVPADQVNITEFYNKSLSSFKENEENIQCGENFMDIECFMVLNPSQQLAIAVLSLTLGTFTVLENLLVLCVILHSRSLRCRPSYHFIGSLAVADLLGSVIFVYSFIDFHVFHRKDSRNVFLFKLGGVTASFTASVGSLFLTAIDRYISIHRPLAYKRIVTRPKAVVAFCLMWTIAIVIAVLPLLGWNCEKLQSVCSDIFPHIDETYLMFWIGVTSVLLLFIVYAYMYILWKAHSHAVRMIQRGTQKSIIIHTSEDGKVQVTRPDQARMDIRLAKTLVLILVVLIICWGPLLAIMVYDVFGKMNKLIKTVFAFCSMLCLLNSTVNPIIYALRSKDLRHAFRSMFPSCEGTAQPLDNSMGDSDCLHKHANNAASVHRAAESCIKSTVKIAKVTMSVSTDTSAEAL

Take `CC(C)(C)[C@H](NC(=O)n1nc(-c2ccc(F)c(F)c2)c2c1CCOC2)C(=O)NCCO` [Compound 36, (S)-N-(1-(2-hydroxyethylamino)-3,3-dimethyl-1-oxobutan-2-yl)-3-(3,4-difluorophenyl)-6,7-dihydropyrano[4,3-c]pyrazole-1(4H)-carboxamide]: the “sensitivity to non-noxious mechanical stimuli, significance vs. vehicle-controls” value in the test with rat L5/L6 SNL model (3 mg/kg oral) is reported as “significant to p<0.05 vs. vehicle-controls”; with rat L5/L6 SNL model (10 mg/kg oral), “significant to p<0.001 vs. vehicle-controls”; in the test with rat L5/L6 SNL model (30 mg/kg oral) it was “significant to p<0.001 vs. vehicle-controls”.
A word on the EC50: it is the midpoint of the concentration-response curve. For `CNC(=O)[C@@H](NC(=O)n1nc(-c2cc(C(F)(F)F)ccc2F)c2c1CCN(C)C2)C(C)(C)C` [Compound 59, (S)-N-(3,3-dimethyl-1-(methylamino)-1-oxobutan-2-yl)-3-(2-fluoro-5-(trifluoromethyl)phenyl)-5-methyl-4,5,6,7-tetrahydro-1H-pyrazolo[4,3-c]pyridine-1-carboxamide], the EC50 in test [1] and in test [2] was less than 1000 nM throughout.
With `CC(C)(C)[C@H](NC(=O)n1nc(-c2ccc(F)c(F)c2)c2c1CCOC2)C(=O)NCCC#N` [Compound 104, (S)-N-(1-(2-cyanoethylamino)-3,3-dimethyl-1-oxobutan-2-yl)-3-(3,4-difluorophenyl)-6,7-dihydropyrano[4,3-c]pyrazole-1(4H)-carboxamide], the concentration giving a half-maximal response (EC50) in test [1] and in test [2] was less than 1000 nM throughout.
`Cc1cc(NC(=O)[C@@H](NC(=O)n2nc(-c3ccc(F)c(F)c3)c3c2CCOC3)C(C)(C)C)n[nH]1` [Compound 105, (S)-3-(3,4-difluorophenyl)-N-(3,3-dimethyl-1-(5-methyl-1H-pyrazol-3-ylamino)-1-oxobutan-2-yl)-6,7-dihydropyrano[4,3-c]pyrazole-1(4H)-carboxamide]: the EC50 in test [1] and in test [2] was less than 1000 nM throughout.
With `Cc1cnc(CNC(=O)[C@@H](NC(=O)n2nc(-c3ccc(F)c(F)c3)c3c2CCOC3)C(C)(C)C)cn1` [Compound 106, (S)-3-(3,4-difluorophenyl)-N-(3,3-dimethyl-1-((5-methylpyrazin-2-yl)methylamino)-1-oxobutan-2-yl)-6,7-dihydropyrano-[4,3-c]pyrazole-1(4H)-carboxamide], the EC50 in test [1] and in test [2] (setting [3]) was less than 1000 nM each time.
Regarding `CC(C)(C)[C@H](NC(=O)n1nc(-c2ccc(F)c(F)c2)c2c1CCOC2)C(=O)N1CCN(c2ncccn2)CC1` [Compound 107, (S)-3-(3,4-difluorophenyl)-N-(3,3-dimethyl-1-oxo-1-(4-(pyrimidin-2-yl)piperazin-1-yl)butan-2-yl)-6,7-dihydropyrano[4,3-c]pyrazole-1(4H)-carboxamide], the EC50 in test [1] and in test [2] (setting [3]) was less than 1000 nM each time.
As to `CC(C)(C)[C@H](NC(=O)n1nc(-c2ccc(F)c(F)c2)c2c1CCOC2)C(=O)N1CCN(c2nccs2)CC1` [Compound 108, (S)-3-(3,4-difluorophenyl)-N-(3,3-dimethyl-1-oxo-1-(4-(thiazol-2-yl)piperazin-1-yl)butan-2-yl)-6,7-dihydropyrano[4,3-c]pyrazole-1(4H)-carboxamide], the EC50 in test [1] and in test [2] was less than 1000 nM each time.
On to `CC(C)(C)[C@H](NC(=O)n1nc(-c2ccc(F)c(F)c2)c2c1CCOC2)C(=O)N1CCC[C@H]1CO` [Compound 109, 3-(3,4-difluorophenyl)-N-((S)-1-((S)-2-(hydroxymethyl)pyrrolidin-1-yl)-3,3-dimethyl-1-oxobutan-2-yl)-6,7-dihydropyrano[4,3-c]pyrazole-1(4H)-carboxamide], for which the EC50 in test [1] and in test [2] was less than 1000 nM throughout.
For the molecule `CC(C)(C)[C@H](NC(=O)n1nc(-c2ccc(F)c(F)c2)c2c1CCOC2)C(=O)N1CCS(=O)(=O)CC1` [Compound 110, (S)-3-(3,4-difluorophenyl)-N-(3,3-dimethyl-1-oxo-1-thiomorpholinodioxide-butan-2-yl)-6,7-dihydropyrano[4,3-c]pyrazole-1(4H)-carboxamide], the EC50 in test [1] is less than 1000 nM; in test [2] (setting [3]), greater than 1000 nM.
For the molecule `CC(C)(C)[C@H](NC(=O)n1nc(-c2ccc(F)c(F)c2)c2c1CCOC2)C(=O)N1CCNC(=O)C1` [Compound 111, (S)-3-(3,4-difluorophenyl)-N-(3,3-dimethyl-1-oxo-1-(3-oxopiperazin-1-yl)butan-2-yl)-6,7-dihydropyrano[4,3-c]pyrazole-1(4H)-carboxamide], the EC50 in test [1] and in test [2] was less than 1000 nM in each case.
Regarding `CN(C)S(=O)(=O)N1CCN(C(=O)[C@@H](NC(=O)n2nc(-c3ccc(F)c(F)c3)c3c2CCOC3)C(C)(C)C)CC1` [Compound 112, (S)-3-(3,4-difluorophenyl)-N-(1-(4-(N,N-dimethylsulfamoyl)piperazin-1-yl)-3,3-dimethyl-1-oxobutan-2-yl)-6,7-dihydropyrano-[4,3-c]pyrazole-1(4H)-carboxamide], the EC50 is less than 1000 nM in test [1] and greater than 1000 nM in test [2] (setting [3]).
For the molecule `Cc1nnc(CNC(=O)[C@@H](NC(=O)n2nc(-c3ccc(F)c(F)c3)c3c2CCOC3)C(C)(C)C)o1` [Compound 113, (S)-3-(3,4-difluorophenyl)-N-(3,3-dimethyl-1-((5-methyl-1,3,4-oxadiazol-2-yl)methylamino)-1-oxobutan-2-yl)-6,7-dihydropyrano[4,3-c]pyrazole-1(4H)-carboxamide], the EC50 in test [1] and in test [2] was less than 1000 nM throughout.
For the molecule `CC(C)(C)[C@H](NC(=O)c1nn(-c2ccc(Cl)cc2F)c2c1COCC2)C(=O)NCCO` [Compound 117, (S)-1-(4-chloro-2-fluorophenyl)-N-(1-(2-hydroxyethylamino)-3,3-dimethyl-1-oxobutan-2-yl)-1,4,6,7-tetrahydropyrano[4,3-c]pyrazole-3-carboxamide], the EC50 in test [1] and in test [2] was less than 1000 nM in each case.
Turning to `CC(C)(C)[C@H](NC(=O)c1nn(-c2ccc(Cl)cc2F)c2c1CCOC2)C(=O)NCCO` [Compound 118, (S)-1-(4-chloro-2-fluorophenyl)-N-(1-(2-hydroxyethylamino)-3,3-dimethyl-1-oxobutan-2-yl)-1,4,5,7-tetrahydropyrano[3,4-c]pyrazole-3-carboxamide], the EC50 in test [1] and in test [2] was less than 1000 nM throughout.
Take `CC(C)(C)[C@H](NC(=O)c1nn(-c2cc(Cl)ccc2F)c2c1COCC2)C(=O)NCCO` [Compound 119, (S)-1-(5-chloro-2-fluorophenyl)-N-(1-(2-hydroxyethylamino)-3,3-dimethyl-1-oxobutan-2-yl)-1,4,6,7-tetrahydropyrano[4,3-c]pyrazole-3-carboxamide]: the EC50 in test [1] and in test [2] was less than 1000 nM in each case.
As for `CNC(=O)[C@@H](NC(=O)c1nn(-c2ccc(F)c(F)c2)c2c1CN(C)CCC2)C(C)(C)C` [Compound 120, (S)-1-(3,4-difluorophenyl)-N-(3,3-dimethyl-1-(methylamino)-1-oxobutan-2-yl)-5-methyl-1,4,5,6,7,8-hexahydropyrazolo[4,3-c]azepine-3-carboxamide], the EC50 in test [1] and in test [2] was less than 1000 nM throughout.
Consider `CC(C)(C)[C@H](NC(=O)c1nn(-c2cc(Cl)ccc2F)c2c1COCC2)C(=O)N1CCNC(=O)C1` [Compound 121, (S)-1-(5-chloro-2-fluorophenyl)-N-(3,3-dimethyl-1-oxo-1-(3-oxopiperazin-1-yl)butan-2-yl)-1,4,6,7-tetrahydropyrano[4,3-c]pyrazole-3-carboxamide], for which, in test [1], the EC50 is less than 1000 nM. Also, in test [2] (cAMP assay), the hCBR2 activity entry was “no detectable hCBR2 activity”.
With `CC(C)(C)C(NC(=O)c1nn(-c2cc(Cl)ccc2F)c2c1COCC2)C(=O)N1CCC[C@H]1CO` (stereo partly drawn) [Compound 122], the EC50 in test [1] and in test [2] was less than 1000 nM throughout.
Take `Cc1nnc(CNC(=O)[C@@H](NC(=O)c2nn(-c3cc(Cl)ccc3F)c3c2COCC3)C(C)(C)C)o1` [Compound 123]: the EC50 in test [1] is less than 1000 nM. In addition, in test [2] (cAMP assay), the hCBR2 activity result is given as “no detectable hCBR2 activity”.
